{
  "source": "patent US8906914B2",
  "about": "“Ethylene diamine modulators of fatty acid hydrolase” (priority 2009, dated 2014)",
  "key": {"Rat FAAH-1": {"biological_target": "T1, Rat FAAH-1 (Rattus norvegicus, UniProt P97612)", "T1 construct": "expressed in transfected cells", "T1 sequence (P97612 1-579)": "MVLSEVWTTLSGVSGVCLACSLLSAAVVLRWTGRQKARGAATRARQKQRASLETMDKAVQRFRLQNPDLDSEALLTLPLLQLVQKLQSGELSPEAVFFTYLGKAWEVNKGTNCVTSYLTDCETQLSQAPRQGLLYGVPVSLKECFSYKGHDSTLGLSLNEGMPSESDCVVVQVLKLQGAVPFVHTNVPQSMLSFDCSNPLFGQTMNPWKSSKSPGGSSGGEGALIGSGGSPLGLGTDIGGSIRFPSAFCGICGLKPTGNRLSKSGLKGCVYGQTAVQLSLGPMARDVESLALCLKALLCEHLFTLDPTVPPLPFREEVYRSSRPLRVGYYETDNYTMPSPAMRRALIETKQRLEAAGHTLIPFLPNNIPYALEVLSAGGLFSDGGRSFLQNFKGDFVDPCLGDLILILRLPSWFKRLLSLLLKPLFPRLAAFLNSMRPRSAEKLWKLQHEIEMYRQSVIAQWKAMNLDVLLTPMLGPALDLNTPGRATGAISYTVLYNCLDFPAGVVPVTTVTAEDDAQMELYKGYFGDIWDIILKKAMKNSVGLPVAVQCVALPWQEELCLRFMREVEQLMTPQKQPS", "test": "Rat FAAH-1 assay (Assay Method 2), 3H-anandamide hydrolysis in cell homogenate", "format": "biochemical", "method": "A. Transfection of Cells with Rat FAAH-1\n(§1) A 10-cm tissue culture dish with a confluent monolayer of SK-N-MC cells was split 2 days (d) prior to transfection. Using sterile technique, the media was removed and the cells were detached from the dish by the addition of trypsin. One fifth of the cells were then placed onto a new 10-cm dish. Cells were grown in a 37° C. incubator with 5% CO2 in Minimal Essential Media Eagle with 10% Fetal Bovine Serum. After 2 d, cells were approximately 80% confluent. These cells were removed from the dish with trypsin and pelleted in a clinical centrifuge. The pellet was re-suspended in 400 μL complete media and transferred to an electroporation cuvette with a 0.4 cm gap between the electrodes. Supercoiled rat FAAH cDNA (1 μg) was added to the cells and mixed. The voltage for the electroporation was set at 0.25 kV, and the capacitance was set at 960 μF. After electroporation, the cells were diluted into complete media (10 mL) and plated onto four 10-cm dishes. Because of the variability in the efficiency of electroporation, four different concentrations of cells were plated. The ratios used were 1:20, 1:10, and 1:5, with the remainder of the cells being added to the fourth dish. The cells were allowed to recover for 24 h before adding the selection media (complete media with 600 μg/mL G418). After 10 d, dishes were analyzed for surviving colonies of cells. Dishes with well-isolated colonies were used. Cells from individual colonies were isolated and tested.\n(§2) The assay mixture consisted of 50 μL of the cell homogenate, 10 μL of the test compound, and 40 μL of anandamide [1-^3H-ethanolamine] (^3H-AEA, Perkin-Elmer, 10.3 Ci/mmol), which was added last, for a final tracer concentration of 80 nM. The reaction mixture was incubated at rt for 1 h. During the incubation, 96-well Multiscreen filter plates (catalog number MAFCNOB50; Millipore, Bedford, Mass., USA) were loaded with 25 μL of activated charcoal (Multiscreen column loader, catalog number MACL09625, Millipore) and washed once with 100 μL of MeOH. Also during the incubation, 96-well DYNEX MicroLite plates (catalog number NL510410) were loaded with 100 μL of MicroScint40 (catalog number 6013641, Packard Bioscience, Meriden, Conn., USA). After the 1 h incubation, 60 μL of the reaction mixture were transferred to the charcoal plates, which were then assembled on top of the DYNEX plates using Centrifuge Alignment Frames (catalog number MACF09604, Millipore). The unbound labeled ethanolamine was centrifuged through to the bottom plate (5 min at 2000 rpm), which was preloaded with the scintillant, as described above. The plates were sealed and left at rt for 1 h before counting on a Hewlett Packard TopCount.\n(§3) Where activity is shown as greater than (>) a particular value, the value is the solubility limit of the compound in the assay medium or the highest concentration tested in the assay."}, "FAAH": {"biological_target": "T2, FAAH (Homo sapiens, UniProt O00519)", "T2 sequence (O00519 1-579)": "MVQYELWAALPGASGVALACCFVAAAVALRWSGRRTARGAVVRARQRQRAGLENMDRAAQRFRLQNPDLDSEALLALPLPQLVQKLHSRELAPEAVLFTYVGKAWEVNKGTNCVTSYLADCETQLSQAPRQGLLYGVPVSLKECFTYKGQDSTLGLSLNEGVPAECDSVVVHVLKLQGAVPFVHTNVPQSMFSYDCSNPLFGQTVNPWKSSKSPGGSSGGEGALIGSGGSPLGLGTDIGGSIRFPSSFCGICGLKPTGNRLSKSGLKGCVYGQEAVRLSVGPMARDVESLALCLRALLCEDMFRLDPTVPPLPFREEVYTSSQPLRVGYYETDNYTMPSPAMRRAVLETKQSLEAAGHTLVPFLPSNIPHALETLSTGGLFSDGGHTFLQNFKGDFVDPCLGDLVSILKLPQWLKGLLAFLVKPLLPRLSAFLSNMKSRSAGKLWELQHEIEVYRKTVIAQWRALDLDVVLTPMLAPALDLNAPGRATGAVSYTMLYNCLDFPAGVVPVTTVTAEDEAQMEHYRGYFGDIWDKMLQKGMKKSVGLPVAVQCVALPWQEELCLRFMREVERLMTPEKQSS", "test": "Human FAAH assay (Assay Method 1), 3H-anandamide hydrolysis in cell homogenate", "format": "biochemical", "set-up": "expressed in transfected cells; alternatively T84 frozen cell pellets (endogenous FAAH)", "method": "A. Transfection of Cells with Human FAAH\nas §1, with “Supercoiled human” for “Supercoiled rat”\nas §2, with “[1-3H-ethanolamine]” for “[1-^3H-ethanolamine]”\nas §3"}},
  "note": "Where a name gives a salt, the structure may show the parent alone.",
  "data": [
    {"compound": "N#Cc1cc([C@@H](N)CNc2cc(-c3ccc(C(F)(F)F)c(Cl)c3)ncn2)ccc1F", "note": "[Example 62, (1R)-5-{1-Amino-2-[6-(3-chloro-4-trifluoromethyl-phenyl)-pyrimidin-4-ylamino]-ethyl}-2-fluoro-benzonitrile]", "values": [
      {"measurement": "IC50", "setting": "Rat FAAH-1", "value": 300, "unit": "nM"},
      {"measurement": "IC50", "setting": "FAAH", "value": 320, "unit": "nM"}
    ]},
    {"compound": "N[C@@H](CNc1cc(-c2ccc(OCC(F)(F)F)cc2)ncn1)c1ccccc1", "note": "[Example 20, (1R)-1-Phenyl-N^2-{6-[4-(2,2,2-trifluoroethoxy)phenyl]pyrimidin-4-yl}ethane-1,2-diamine hydrochloride acid salt]", "values": [
      {"measurement": "IC50", "setting": "Rat FAAH-1", "value": 2000, "unit": "nM"},
      {"measurement": "IC50", "setting": "FAAH", "value": 130, "unit": "nM"}
    ]},
    {"compound": "N[C@H](CNc1cc(-c2ccc(C(F)(F)F)c(Cl)c2)ncn1)c1ccc(F)cc1", "note": "[Example 28, (1S)—N^2-[6-(3-Chloro-4-trifluoromethyl-phenyl)-pyrimidin-4-yl]-1-(4-fluoro-phenyl)-ethane-1,2-diamine]", "values": [
      {"measurement": "IC50", "setting": "Rat FAAH-1", "value": 900, "unit": "nM"},
      {"measurement": "IC50", "setting": "FAAH", "value": 600, "unit": "nM"}
    ]},
    {"compound": "N[C@@H](CNc1cc(-c2ccc(OC(F)(F)F)c(F)c2)ncn1)c1ccccc1", "note": "[Example 8, (1R)—N^2-{6-[3-Fluoro-4-(trifluoromethoxy)phenyl]pyrimidin-4-yl}-1-phenylethane-1,2-diamine hydrochloride acid salt]", "values": [
      {"measurement": "IC50", "setting": "Rat FAAH-1", "value": 170, "unit": "nM"},
      {"measurement": "IC50", "setting": "FAAH", "value": 50, "unit": "nM"}
    ]},
    {"compound": "O=C(N[C@@H](CNc1cc(-c2ccc(C(F)(F)F)c(Cl)c2)ncn1)c1ccccc1)C(F)(F)F", "note": "[Example 26, N-[(1R)-2-({6-[3-chloro-4-(trifluoromethyl)phenyl]pyrimidin-4-yl}amino)-1-phenylethyl]-2,2,2-trifluoroacetamide]", "values": [
      {"measurement": "IC50", "setting": "Rat FAAH-1", "value": "> 10000", "unit": "nM"},
      {"measurement": "IC50", "setting": "FAAH", "value": 1600, "unit": "nM"}
    ]},
    {"compound": "N[C@@H](CNc1cc(-c2ccc3c(C(F)(F)F)noc3c2)ncn1)c1ccccc1", "note": "[Example 13, (1R)-1-Phenyl-N^2-[6-(3-(trifluoromethyl)-benzo[d]isoxazol-6-yl)pyrimidin-4-yl]-ethane-1,2-diamine hydrochloride acid salt]", "values": [
      {"measurement": "IC50", "setting": "Rat FAAH-1", "value": 71, "unit": "nM"},
      {"measurement": "IC50", "setting": "FAAH", "value": 44, "unit": "nM"}
    ]},
    {"compound": "N[C@@H](CNc1cc(-c2ccc(OC(F)(F)F)c(Cl)c2)ncn1)c1ccccc1", "note": "[Example 7, (1R)—N^2-{6-[3-Chloro-4-(trifluoromethoxy)phenyl]pyrimidin-4-yl}-1-phenylethane-1,2-diamine hydrochloride acid salt]", "values": [
      {"measurement": "IC50", "setting": "Rat FAAH-1", "value": 120, "unit": "nM"},
      {"measurement": "IC50", "setting": "FAAH", "value": 53, "unit": "nM"}
    ]},
    {"compound": "N[C@H](CNc1cc(-c2ccc(C(F)(F)F)c(Cl)c2)ncn1)c1ccc(F)c(Cl)c1", "note": "[Example 46, (1S)—N^2-1-(3-Chloro-4-fluoro-phenyl)-[6-(3-chloro-4-trifluoromethyl-phenyl)-pyrimidin-4-yl]-ethane-1,2-diamine]", "values": [
      {"measurement": "IC50", "setting": "Rat FAAH-1", "value": 3000, "unit": "nM"},
      {"measurement": "IC50", "setting": "FAAH", "value": 3000, "unit": "nM"}
    ]},
    {"compound": "N#Cc1cccc([C@@H](N)CNc2cc(-c3ccc(C(F)(F)F)c(Cl)c3)ncn2)c1", "note": "[Example 49, (1R)-3-{1-Amino-2-[6-(3-chloro-4-trifluoromethyl-phenyl)-pyrimidin-4-ylamino]-ethyl}-benzonitrile]", "values": [
      {"measurement": "IC50", "setting": "Rat FAAH-1", "value": 770, "unit": "nM"},
      {"measurement": "IC50", "setting": "FAAH", "value": 1000, "unit": "nM"}
    ]},
    {"compound": "Cc1ccc2sc(-c3cc(NC[C@H](N)c4ccccc4)ncn3)cc2c1", "note": "[Example 9, (1R)—N^2-[6-(5-Methyl-1-benzothiophen-2-yl)pyrimidin-4-yl]-1-phenylethane-1,2-diamine hydrochloride acid salt]", "values": [
      {"measurement": "IC50", "setting": "Rat FAAH-1", "value": 320, "unit": "nM"},
      {"measurement": "IC50", "setting": "FAAH", "value": 20, "unit": "nM"}
    ]},
    {"compound": "N[C@@H](CNc1cc(-c2ccc(OC(F)(F)F)cc2)ncn1)c1ccccc1", "note": "[Example 6, (1R)-1-Phenyl-N^2-{6-[4-(trifluoromethoxy)phenyl]pyrimidin-4-yl}ethane-1,2-diamine hydrochloride acid salt]", "values": [
      {"measurement": "IC50", "setting": "Rat FAAH-1", "value": 880, "unit": "nM"},
      {"measurement": "IC50", "setting": "FAAH", "value": 82, "unit": "nM"}
    ]},
    {"compound": "N[C@@H](CNc1cc(-c2ccc(C(F)(F)F)c(Cl)c2)ncn1)c1ccc(F)cc1", "note": "[Example 27, (1R)—N^2-[6-(3-Chloro-4-trifluoromethyl-phenyl)-pyrimidin-4-yl]-1-(4-fluoro-phenyl)-ethane-1,2-diamine]", "values": [
      {"measurement": "IC50", "setting": "Rat FAAH-1", "value": 60, "unit": "nM"},
      {"measurement": "IC50", "setting": "FAAH", "value": 33, "unit": "nM"}
    ]},
    {"compound": "N[C@@H](CNc1cc(-c2ccc(C(F)(F)F)c(Cl)c2)ncn1)c1ccc(Cl)cc1", "note": "[Example 39, (1R)—N^2-1-(4-Chloro-phenyl)-[6-(3-chloro-4-trifluoromethyl-phenyl)-pyrimidin-4-yl]-ethane-1,2-diamine, trifluoroacetic acid salt]", "values": [
      {"measurement": "IC50", "setting": "Rat FAAH-1", "value": 40, "unit": "nM"},
      {"measurement": "IC50", "setting": "FAAH", "value": 66, "unit": "nM"}
    ]},
    {"compound": "N[C@@H](CNc1cc(-c2cccc(OC(F)(F)F)c2)ncn1)c1ccccc1", "note": "[Example 18, (1R)-1-Phenyl-N^2-{6-[3-(trifluoromethoxy)phenyl]pyrimidin-4-yl}ethane-1,2-diamine hydrochloride acid salt]", "values": [
      {"measurement": "IC50", "setting": "Rat FAAH-1", "value": "> 10000", "unit": "nM"},
      {"measurement": "IC50", "setting": "FAAH", "value": 920, "unit": "nM"}
    ]}
  ]
}
